Assay results as given in patent US6403788B1, “Non-genotoxic metalloporphyrins as synthetic catalytic scavengers of reactive oxygen species” (Eukarion, Inc., priority 2000, dated 2002).

Tests used:
Format in all cases: biochemical
[1] = Peroxidase activity, ABTS oxidation; settings: 10 μM compound, 200 μM hydrogen peroxide, 500 μM ABTS, pH 8.1, 740 nm
Method: Peroxidase activity was measured by incubating 10 μM compound, 200 μM hydrogen peroxide and 500 μM ABTS in 50 mM sodium phosphate, pH 8.1. The rate of ABTS oxidation was monitored at 740 nm and initial rates (change in absorbance per min.) determined.

[2] = Catalase turnover assay, total hydrogen peroxide consumed before inactivation; settings: to completion, 15.8 μM compound, 1582 μM hydrogen peroxide, 5 mM Na phosphate pH 7.4
Method: Catalase activity was measured by incubating the sample compound with hydrogen peroxide and determining the amount of hydrogen peroxide remaining after a period of time using a colorimetric peroxidase-coupled assay method. 10 μM sample compound and 100 μM hydrogen peroxide in 40 mM sodium phosphate pH 7.4 were incubated together at ambient temperature in a multi-well plate. After the desired reaction period had elapsed, 20 μl of peroxidase/ABTS reagent was added (peroxidase/ABTS reagent contained 100 μl of 50 mM Na phosphate, pH 7.4, 1 mg horseradish peroxidase (1310 U/mg) and […]). After five minutes, absorbance at 750 nm was determined. The amount of hydrogen peroxide remaining was calculated based on a standard curve. To compare rates of catalase reaction, the amount of hydrogen peroxide consumed at 20 minutes was determined (See table III). It was also of interest to determine the total number of turnovers completed by the compound before inactivation by hydrogen peroxide. This was assayed under similar conditions, except that 15.8 μM compound was combined with 1582 μM hydrogen peroxide in 5 mM Na phosphate, pH 7.4. Reactions were allowed to proceed to completion and then the amount of hydrogen peroxide remaining was determined as described above. Results showing […] in the turnover assay (nmoles hydrogen peroxide per nmole compound) are also shown in Table III.

[3] = Superoxide dismutase activity, xanthine-xanthine oxidase / cytochrome C; settings: reciprocal of IC50; xanthine 60 μM, xanthine oxidase 0.009 units/ml, cytochrome C 27.8 μM
Method: Superoxide Dismutase Activity was measured by incubating the compound with a superoxide generating system (Xanthine, 60 μM-Xanthine Oxidase, 0.009 units/ml) and a detector molecule (Cytochrome C, 27.8 μM). Upon reacting with a molecule of superoxide, Cytochrome C undergoes a spectrum-shift which can be detected as an increase in absorbance at 550 nm. In this assay procedure, the reactant concentrations were adjusted to give a reaction rate close to 0.1 AU/min. at 2-3 min. after the reaction began. Addition of compounds with Superoxide Dismutase activity reduce the rate of absorbance change. Compounds were assayed at several concentrations (typically at 0, 2, 4, and 8 μM) and the resulting rates were graphed and fitted to a linear regression formula. The linear regression formula was then solved to determine the concentration of compound required to reduce the reaction rate to 50% of the rate without compound present (IC50).

## CC[NH+](CC)CCNS(=O)(=O)c1c(C)cc(C)c(C2=C3C=CC4=[N+]3[Fe-]35[n]6c2ccc6C(c2c(C)cc(C)c(S(=O)(=O)NCC[NH+](CC)CC)c2C)=C2C=CC(=[N+]23)C(c2c(C)cc(C)c(S(=O)(=O)NCC[NH+](CC)CC)c2C)=c2ccc([n]25)=C4c2c(C)cc(C)c(S(=O)(=O)NCC[NH+](CC)CC)c2C)c1C.[Cl-].[Cl-].[Cl-].[Cl-].[Cl-] [Structural Formula V, meso-tetrakis[3-(N-(2-(N,N-diethylammonio)ethyl)aminosulfonyl)-2,4,6-trimethylphenyl]porphyrinato diaqua-iron (III) pentachloride]
[1]
  PEROXIDASE Initial Rate: 0.0443 change in absorbance per min.
[2]
  CATALASE** H2O2 Consumption: 36.1 nmole H2O2/nmole Structural Formula compound
[3]
  Cyt C SOD 1/(IC50, μM): 0.067 µM⁻¹
